Laboratory results taken from patent US20250302974A1, “LECTIN-DRUG CONJUGATES” (UNICHEM LABORATORIES LIMITED, priority 2021, published 2025).
Square brackets hold non-standard residues; d marks the D form. Peptide text beside a SMILES is read from it. * marks the point of attachment. Dolaproine = CO[C@@H]([C@@H]1CCCN1)[C@@H](C)C(=O)O; Dil = CC[C@H](C)[C@H](NC)[C@@H](CC(=O)O)OC; X1 = C[C@@H](N*)[C@@H](O)c1ccccc1; NMeV = CN[C@H](C(=O)O)C(C)C

Key:
[1] = system: PANC-1 cells; assay: MTT cytotoxicity assay, PANC-1 pancreatic; type: cell-based; conditions: Homo sapiens
Procedure: (§1) The Untreated cells were used as Control. […] Cells were incubated for 3 h at 37° C. The supernatant was aspirated.
(§2) The % Cytotoxicity was calculated using the formula: […]
(§3) Selectivity Index was calculated using the formula:
(§4) SI=IC50 in Normal cell/IC50 in cancer cell.

[2] = system: PA-1 cells; assay: MTT cytotoxicity assay, PA-1 ovary; type: cell-based; conditions: Homo sapiens
Procedure: as §1, §2, §3, §4

[3] = system: PA-1 cells; assay: Cytotoxicity (cell titer glo, 72 h) ovarian cancer cell line PA-1; type: cell-based; conditions: Homo sapiens, PA-1 cell line
Procedure: (§5) T-24 Cell line were cultured in McCoy's 5a Medium Modified supplemented with 10% FBS and the PA-1 Cell line was cultured in EMEM Media supplemented with 10% FBS. The assay was performed by plating 5,000 cells/well and incubated at 37° C. overnight. […] Each concentration was added in triplicate and media-only wells used as a control. After incubation for 72 h cell titer glow (Promega) reagent (50 μL) was added to each well and the plates shaken for 5 mins and the luminescence was recorded. Percent viability was determined by dividing luminescence of the treated well by the non-treated well and multiplying by 100. Data was analysed using non-linear regression with a logarithmic scale.
5,000 cells/well were plated and incubated at 37° C. overnight. Conjugates/vehicle control dilutions were made in respective media and added to cells. Volume added: 50 uL to each well. […] Each concentration was analysed in triplicates. […] Cell titer glow reagent (volume: 50 uL) was added to each well, the plate was shaken for 5 mins and the luminescence was recorded. […] Percent viability was calculated by dividing the luminescence signal obtained for each treated well by the untreated well (media-only control) and multiplying by 100.

[4] = system: MDA-MB-231 cells; assay: MTT cytotoxicity assay, MDA-MB-231 breast; type: cell-based; conditions: Homo sapiens
Procedure: as §1, §2, §3, §4

[5] = system: HT29 Colon; assay: Cytotoxic effect by MTT assay, 48 h; conditions: read-out: IC50 Values; HT29 Colon, after 48 h of treatment
[6] = system: AGS Stomach; assay: Cytotoxic effect by MTT assay, 48 h; conditions: read-out: IC50 Values; AGS Stomach, after 48 h of treatment
Procedure, shortened: (§6)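 MTT read-out, A540 nm, formazan in DMSO. Cpd range 0.0001–10 μM; dox control 0.1–100 μM; untreated = reference.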

[7] = system: MG-63 Bone; assay: Cytotoxic effect by MTT assay, 48 h; conditions: for Percent cytotoxicity wrt control: 48 h
[8] = system: KB Cervix; assay: Cytotoxic effect by MTT assay, 48 h; conditions: for Percent cytotoxicity wrt control: KB, 48 h
Procedure, shortened: as §6

[9] = system: PA-1 Ovary; assay: Cytotoxic effect by MTT assay, 48 h; conditions: for Percent cytotoxicity wrt control: 48 h
Procedure, shortened: as §6

[10] = system: human urinary bladder cancer cell line (T-24); assay: Cytotoxicity assay, cell titer glow luminescence, 72 h; type: cell-based; conditions: 72 h
Procedure: as §5
(§7) 5,000 cells/well were plated and incubated at 37° C. overnight. Conjugates/vehicle control dilutions were made in respective media and added to cells. Volume added: 50 uL to each well. Starting treatment concentration was 1 uM for Conjugate of formula 16 and 18, and control SEQ ID NO: 5 alone and 10% for vehicle control (1×PBS with 20% DMA) and then diluted 10-fold down for a total of 11 treatment dilutions. Each concentration was analysed in triplicates. Media-only wells was used as a control to calculate percent viability. Cell titer glow reagent (volume: 50 uL) was added to each well, the plate was shaken for 5 mins and the luminescence was recorded. Drug Treatment Time: 72 hours. Percent viability was calculated by dividing the luminescence signal obtained for each treated well by the untreated well (media-only control) and multiplying by 100.

[11] = system: ovarian cancer cell line (PA-1); assay: as above; type: cell-based; conditions: 72 h
Procedure: as §5, §7

[12] = system: KB cells; assay: MTT cytotoxicity assay, KB cervix; type: cell-based; conditions: Homo sapiens, 48 h
Procedure: as §1, §2, §3, §4

CC[C@H](C)[C@@H]([C@@H](CC(=O)N1CCC[C@H]1[C@H](OC)[C@@H](C)C(=O)N[C@H](C)[C@@H](O)c1ccccc1)OC)N(C)C(=O)[C@@H](NC(=O)[C@@H](NC)C(C)C)C(C)C [MMAE, monomethyl auristatin E] (H-[NMeV]V[Dil][Dolaproine]-X1)
IC50 ([1]; PANC-1, 48 h): 1.5 nM
cytotoxicity at 0.0001 µM ([1]; PANC-1, 0.0001 μm, 48 h, read-out: Percent cytotoxicity wrt control): 38.1%
cytotoxicity at 0.001 µM ([1]; PANC-1, 0.001 μm, 48 h, read-out: Percent cytotoxicity wrt control): 41%
cytotoxicity at 0.01 µM ([1]; PANC-1, 0.01 μm, 48 h, read-out: Percent cytotoxicity wrt control): 64.1%
cytotoxicity at 0.1 µM ([1]; PANC-1, 0.1 μm, 48 h, read-out: Percent cytotoxicity wrt control): 67.7%
cytotoxicity at 1 µM ([1]; PANC-1, 1 μm, 48 h, read-out: Percent cytotoxicity wrt control): 77.1%
cytotoxicity at 10 µM ([1]; PANC-1, 10 μm, 48 h, read-out: Percent cytotoxicity wrt control): 69.7%
IC50 ([2]; PA-1, 48 h): 30.1 nM
cytotoxicity at 0.0001 µM ([2]; PA-1, 0.0001 μm, 48 h, read-out: Percent cytotoxicity wrt control): 13.4%
cytotoxicity at 0.001 µM ([2]; PA-1, 0.001 μm, 48 h, read-out: Percent cytotoxicity wrt control): 57.5%
cytotoxicity at 0.01 µM ([2]; PA-1, 0.01 μm, 48 h, read-out: Percent cytotoxicity wrt control): 50%
cytotoxicity at 0.1 µM ([2]; PA-1, 0.1 μm, 48 h, read-out: Percent cytotoxicity wrt control): 57.5%
cytotoxicity at 1 µM ([2]; PA-1, 1 μm, 48 h, read-out: Percent cytotoxicity wrt control): 61.7%
cytotoxicity at 10 µM ([2]; PA-1, 10 μm, 48 h, read-out: Percent cytotoxicity wrt control): 58.3%
IC50 [3]: 3.23 nM
IC50 ([4]; MDA-MB-231, 48 h): > 10000 nM
cytotoxicity at 0.0001 µM ([4]; MDA-MB-231, 0.0001 μm, 48 h, read-out: Percent cytotoxicity wrt control): 11.3%
cytotoxicity at 0.001 µM ([4]; MDA-MB-231, 0.001 μm, 48 h, read-out: Percent cytotoxicity wrt control): 13.3%
cytotoxicity at 0.01 µM ([4]; MDA-MB-231, 0.01 μm, 48 h, read-out: Percent cytotoxicity wrt control): 28.9%
cytotoxicity at 0.1 µM ([4]; MDA-MB-231, 0.1 μm, 48 h, read-out: Percent cytotoxicity wrt control): 23.8%
cytotoxicity at 1 µM ([4]; MDA-MB-231, 1 μm, 48 h, read-out: Percent cytotoxicity wrt control): 16.8%
cytotoxicity at 10 µM ([4]; MDA-MB-231, 10 μm, 48 h, read-out: Percent cytotoxicity wrt control): 26.4%
IC50 [5]: 50 nM
IC50 [6]: 1540 nM
Percent cytotoxicity wrt control ([7]; MG-63, 0.0001 μM): 81.7%
Percent cytotoxicity wrt control ([7]; MG-63, 0.001 μM): 85.5%
Percent cytotoxicity wrt control ([7]; MG-63, 0.01 μM): 86.2%
Percent cytotoxicity wrt control ([7]; MG-63, 0.1 μM): 87.4%
Percent cytotoxicity wrt control ([7]; MG-63, 1 μM): 85.3%
Percent cytotoxicity wrt control ([7]; MG-63, 10 μM): 82.3%
IC50 ([7]; read-out: IC50 Values, MG-63 Bone, after 48 h of treatment): ≤ 0.1 nM
Percent cytotoxicity wrt control ([8]; 0.0001 μM): 90.5%
Percent cytotoxicity wrt control ([8]; 0.01 μM): 96.1%
Percent cytotoxicity wrt control ([8]; 0.1 μM): 96.3%
Percent cytotoxicity wrt control ([8]; 1 μM): 96.2%
Percent cytotoxicity wrt control ([8]; 10 μM): 96.3%
IC50 ([8]; read-out: IC50 Values, KB Cervix, after 48 h of treatment): ≤ 0.1 nM
Percent cytotoxicity wrt control ([9]; PA-1, 0.0001 μM): 13.4%
Percent cytotoxicity wrt control ([9]; PA-1, 0.001 μM): 57.5%
Percent cytotoxicity wrt control ([9]; PA-1, 0.01 μM): 50%
Percent cytotoxicity wrt control ([9]; PA-1, 0.1 μM): 57.5%
Percent cytotoxicity wrt control ([9]; PA-1, 1 μM): 61.7%
Percent cytotoxicity wrt control ([9]; PA-1, 10 μM): 58.3%
IC50 ([9]; read-out: IC50 Values, PA-1 Ovary, after 48 h of treatment): 30.1 nM
IC50 [10]: 0.24 nM
IC50 [11]: 3.23 nM
cytotoxicity at 0.0001 µM ([12]; 0.0001 μm, read-out: Percent cytotoxicity wrt control): 90.5%
cytotoxicity at 0.001 µM ([12]; 0.001 μm, read-out: Percent cytotoxicity wrt control): 95.8%
cytotoxicity at 0.01 µM ([12]; 0.01 μm, read-out: Percent cytotoxicity wrt control): 96.1%
cytotoxicity at 0.1 µM ([12]; 0.1 μm, read-out: Percent cytotoxicity wrt control): 96.3%
cytotoxicity at 1 µM ([12]; 1 μm, read-out: Percent cytotoxicity wrt control): 96.2%
cytotoxicity at 10 µM ([12]; 10 μm, read-out: Percent cytotoxicity wrt control): 96.3%
IC50 [12]: 0.1 nM
